Measured values published in patent US12448347B2, “Polymorphic forms of (R)-oxybutynin hydrochloride” (APNIMED, INC. (DELAWARE), priority 2020, dated 2025).

Columns and labels:
Assay type in all cases: physicochemical
[1] = Solid form stability / interconversion on drying, storage or slurrying (XRPD); details: for XRPD pattern after prolonged slurrying: slurry in MIBK and in heptanes separately, RT (2 weeks)
[2] = Humidity stress in open containers with XRPD analysis; details: for XRPD form after humidity exposure / appearance of solids after humidity exposure: 24 hours, open container
Description: Samples of R-oxybutynin HCl Form B were exposed to 75% RH and 85% RH for 24 hours, in open containers.

[3] = DVS analysis (moisture sorption/desorption)
[4] = Hygroscopicity of the isolated solids (observation); details: HCl

Row | SMILES | XRPD pattern after prolonged slurrying [1] | XRPD form after humidity exposure ([2]; 75% RH) | appearance of solids after humidity exposure ([2]; 75% RH) | XRPD form after humidity exposure ([2]; 85% RH) | appearance of solids after humidity exposure ([2]; 85% RH) | outcome of humidity stress ([2]; 93% RH) | hygroscopicity by DVS ([3]; DVS analysis) | physical form of post-DVS sample (XRPD) ([3]; XRPD after DVS) | weight gain (DVS) ([3]; between 75% and 95% RH) [%] | weight change upon desorption (DVS) ([3]; desorption from 95% to 5% RH) | weight gain (DVS) ([3]; from 5% RH to 95% RH) [%] | hygroscopicity of isolated solids [4] | crystalline form obtained after drying ([1]; dried under vacuum at RT for 24 hours) | crystalline form obtained upon storage ([1]; storage at ambient conditions) | crystalline form obtained after high temperature drying (XRPD) ([1]; vacuum drying at 50° C. (24 h, 2 days in Table 2), HCl)
1 | CCN(CC)CC#CCOC(=O)[C@](O)(c1ccccc1)C1CCCCC1.Cl [Form B, (R)-oxybutynin HCl] | Form C diffraction patterns were observed | consistent with Form B | remained free flowing | composed of Form B | not free flowing | deliquesced | hygroscopic | Form B remained | 23 | All the weight gained was lost | 26.6 | – | – | – | –
2 | CCN(CC)CC#CCOC(=O)[C@](O)(c1ccccc1)C1CCCCC1.Cl [Form C, (R)-oxybutynin HCl] | – | – | – | – | – | – | – | – | – | – | – | non-hygroscopic | – | – | –
3 | CCN(CC)CC#CCOC(=O)[C@](O)(c1ccccc1)C1CCCCC1.Cl [Form A, (R)-oxybutynin HCl] | Form C diffraction patterns were observed | – | – | – | – | – | – | – | – | – | – | hygroscopic | Form B | Form B | Form C was isolated
